Reference: US5126291A, “Sulfur inhibitors of phospholipase A-Z” (American Cyanamid Company, priority 1990, dated 1992)
Counter-ions that a name gives are not always drawn. Like-named read-outs stand apart in the source and are kept apart here. Blank lines part the entries; values can stand above or below the molecule they belong to.

Columns and labels:
porcine pancreatic PLA2 = target: T1, porcine pancreatic PLA2 (Sus scrofa, UniProt P00592); experiment: Inhibition of porcine pancreatic phospholipase A2 (PLA2), radiochemical assay; format: biochemical; conditions: for Percent Inhibition at 10 ug/ml / inhibition at 10 µg/mL: 10 ug/ml inhibitor; for inhibition at 10 µg/mL: read-out: Percent Inhibition at 10 ug/ml
T1 construct: purchased Sigma
Procedure: 4-((3-(Dimethylamino)propyl)thio)-1-(hexadecyloxy)-2-butanol, acetate was prepared by the method of Example 64 as a 1 mg/ml solution in methanol. Inhibition of phospholipase A2 activity was measured by a radiochemical assay in which labeled synthetic phosphatidylcholine substrate is converted by porcine pancreatic PLA2 to free radiolabeled arachidonate and lyso phosphatidyl choline. In the assay, radiolabeled arachidonate is extracted from the reaction mixture and separated from unreacted substrate by column or thin layer chromatography. The radioactivity (cpm) in samples is quantified in liquids scintillation counting.
[…] The combined substrate was then redissolved in 0.1M Tris-HCl buffer, pH 9.0, containing 10 mM calcium chloride and 10 mM sodium taurocholate detergent. The mixture was sonicated for 10 to 30 seconds in a Kontes Sonifier to yield a homogeneous dispersion. The "mixed" micellar substrate was clear. An aliquot was reserved for a cpm count (total substrate). The total reaction volume was 500 ul; siliconized glassware or plasticware was used throughout. Porcine pancreatic phospholipase A2 enzyme (Sigma, sp. act. […] U/mg protein and preferably 900 U/mg protein) was diluted 1:750 or 1:1000 in 0.1M Tris-HCl buffer, pH 9.0 (without Ca^++ and detergent).
The test compound was diluted appropriately in phosphate buffered saline. 10 ul aliquots of the stock solution were either incubated with enzyme in buffer in the absence of Ca^++ detergent or were blown under N2 stream with the substrate prior to the addition of buffer. The substrate and buffer were kept on ice until the reaction was started by the addition of enzyme (preincubated with test compound or diluent, or fresh enzyme) to the substrate dispersion in buffer.
Samples (600 ul) were extracted with 3 ml of CHC13 /MeOH solution (2:1) for thin layer chromatography. The phases were separated by gentle centrifugation at 700 rpm for 5 minutes. The organic phase was recovered for either thin layer or column chromatography separation.
For thin layer chromatography, labeled arachidonate extracted with CHC13 /MeOH solution was separated on Silica Gel G TLC plates (Analtech). Twenty ul of a 2 mg/ml internal standard solution of arachidonic acid (Sigma) was combined with 2 to 3 ml of the organic phase. The entire mixture was dried under nitrogen and redissolved in 50 ul of CHC13 /MeOH solution (2:1). A 20 ul sample was counted in 10 ml of Beckman Redi-solv Scintillation fluid HP and spotted in Silica Gel G plates. The solvent system used to develop the plate was a CHC13 /MeOH/13.5N NH3 /H2 O solution (70:30:4:1). Thin layer chromatography plates were developed in a glass chamber for 1 to 11/2 hours, air dried, and the spots visualized in an iodine vapor chamber. Standards of phosphatidyl/choline, lyso phosphatidyl choline, and arachidonic acid (Sigma) were made up as 2 mg/ml stocks in CHC13 /MeOH solution (2:1) and were spotted on the thin layer chromatography plates. Spots corresponding to arachidonate and phospholipid were scraped and counted in 10 ml Beckman Redi-Solv HP scintillation fluid.
For column chromatography, samples were extracted with hexane/diether solution and the upper organic phase recovered. An aliquot was applied to a Silicar CC4 (Maleinckrodt) column. Columns were prepared using 1 ml of 1:1 slurry of Silicar CC4 (Maleinckrodt) in hexane/ether solution in a Pasteur pipet (approximately 2 cm height). Columns were rinsed with 500 ul of hexane/ether solution before adding the sample (300-600 ul) to the columns. Columns were eluted with a total of 6 ml of hexane/ether solution. The 6 ml sample was counted in 10 ml of Beckman Redi-Solv HP scintillation fluid. Thin layer chromatography analysis confirmed that the radioactivity eluted was arachidonate.
3-((3-(Acetyloxy)-4-(hexadecyloxy)-butyl)-thio)-N,N,N-trimethyl-1-propanaminium, iodide was prepared by the method of Example 65 as a 1 mg/ml solution in methanol. […]

[1] = test system: spontaneously hypertensive rats; experiment: Hypotensive activity: mean arterial blood pressure in conscious cannulated spontaneously hypertensive rats, intravenous; format: in vivo; conditions: for Peak Mean Arterial Blood Pressure: spontaneously hypertensive rats, intravenous
Text: Under ether anesthesia, Weeks type cannulas (Peterson Technics) were surgically implanted in the abdominal aorta and vena cave of spontaneously hypertensive rats (Taconic Farms, Germantown, NY) and passed subcutaneously to the back of the neck where they were exteriorized. The cannulas were filled with saline, plugged and the rats returned to single cages where they were allowed food and water ad libitum.
At least three days following implantation of the cannulas, the rats were weighed and placed in Broome style restraining cages. The plug was removed from the aortic catheter which was connected to an arterial pressure transducer (Statham P23ID) using PE 100 polyethylene tubing and a stepdown connector fabricated from stainless steel hypodermic tubing. Mean arterial blood pressure was obtained by electrical damping of the pulse pressure channel. Heart rate was obtained from a tachograph triggered by the pulse pressure channel. All parameters were monitored on a Grass physiological recorder (Model 7).
The plug was removed from the vena cava catheter and a PE 20 polyethylene tubing extension was added using a piece of stainless steel hypodermic tubing. The other end was terminated with a 27 G needle and one ml syringe.
All drugs were dissolved in saline or a mixture of ethanol and saline (25:75V:V) such that the volume injected intravenously was 0.1 ml/100 g body weight. All drugs were flushed in with 0.2 ml saline. Blood pressure was continually monitored both before and after introduction of the test compound.

[2] = 1000 uM substrate concentration

T1 sequence (P00592 23-146): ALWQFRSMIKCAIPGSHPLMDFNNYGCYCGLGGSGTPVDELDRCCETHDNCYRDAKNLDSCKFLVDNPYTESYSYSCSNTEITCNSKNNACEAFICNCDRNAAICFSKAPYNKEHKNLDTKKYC

Molecule: 3-((3-(Acetyloxy)-4-(hexadecyloxy)-butyl)-thio)-N,N,N-trimethyl-1-propanaminium, chloride [Example 69]
- Ic50 (porcine pancreatic PLA2; 2 nM substrate concentration): 2.8 µg/mL
- Ic50 (porcine pancreatic PLA2; 10 uM substrate concentration): 11.52 ± 10.58 µg/mL
- Percent Inhibition at 10 ug/ml (porcine pancreatic PLA2; 2 nM substrate concentration): 77%
- Percent Inhibition at 10 ug/ml (porcine pancreatic PLA2; 10 uM substrate concentration): 55.3 ± 16.5%
- Percent Inhibition at 10 ug/ml (porcine pancreatic PLA2; 100 uM substrate concentration): 23%
- Ic50 (porcine pancreatic PLA2; 100 uM substrate concentration): 45.56 ± 23.60 µg/mL

Molecule: CCCCCCCCCCCCCCCCOCC(COP(=O)([O-])OCC(C)[N+](C)(C)C)OC(C)=O (stereo not shown) [8-(Acetyloxy)-5-hydroxy-N,N-N-trimethyl-4,6,10-trioxa-5-phosphahexacosan-2-aminium, 5-oxide, hydroxide, inner salt]
- Peak Mean Arterial Blood Pressure ([1]; dose 0.03 ug/kg): -16.4 mm,Hg
- Peak Mean Arterial Blood Pressure ([1]; dose 0.1 ug/kg): -36.3 mm,Hg
- Peak Mean Arterial Blood Pressure ([1]; dose 0.3 ug/kg): -58.6 mm,Hg
- Peak Mean Arterial Blood Pressure ([1]; dose 1.0 ug/kg): -103.1 mm,Hg
- Peak Mean Arterial Blood Pressure ([1]; dose 3.0 ug/kg): -118.3 mm,Hg

- IC50 (porcine pancreatic PLA2; 2 nM substrate concentration): 18.6 µM
- IC50 (porcine pancreatic PLA2; 10 uM substrate concentration): 45.7 µM
- inhibition at 10 µg/mL (porcine pancreatic PLA2; 2 nM substrate concentration): 54%
- inhibition at 10 µg/mL (porcine pancreatic PLA2; 10 uM substrate concentration): 33 ± 12.7%
- IC50 (porcine pancreatic PLA2; 100 uM substrate concentration): 96.7 µM
- IC50 (porcine pancreatic PLA2; 500 uM substrate concentration): 226 µM
Molecule: CCCCCCCCCCCCCCCCOCC(CCSCCCN(C)C)OC(C)=O (stereo not shown) [Example 67, 4-((3-(Dimethylamino)propyl)thio)-1-(hexadecyloxy)-2-butanol, acetate]

Molecule: CCCCCCCCCCCCCCCCOCC(CCS(=O)(=O)CCC[N+](C)(C)C)OC(C)=O.[Cl-] (stereo not shown) [3-((3-(Acetyloxy)-4-(hexadecyloxy)butyl)sulfonyl)-N,N,N-trimethyl-1-propanaminium chloride]
- reduced the blood pressure in the spontaneously hypertensive rat ([1]; dose of 10 mg/kg (iv), value is a reduction): 20 mm Hg

Molecule: CCCCCCCCCCCCCCCCOCC(COP(=O)([O-])Oc1cccc(C[N+](C)(C)C)c1)OC(C)=O (stereo not shown) [3-(((2-(Acetyloxy)-3-(hexadecyloxy)propoxy)hydroxyphosphinyl)oxy)-N,N,N-trimethylbenzenemethanaminium, hydroxide inner salt]
- Peak Mean Arterial Blood Pressure ([1]; dose 0.1 ug/kg): -10.4 mm,Hg
- Peak Mean Arterial Blood Pressure ([1]; dose 0.3 ug/kg): -16.3 mm,Hg
- Peak Mean Arterial Blood Pressure ([1]; dose 1.0 ug/kg): -37.2 mm,Hg
- Peak Mean Arterial Blood Pressure ([1]; dose 3.0 ug/kg): -83.9 mm,Hg
- Peak Mean Arterial Blood Pressure ([1]; dose 10.0 ug/kg): -91.0 mm,Hg

Molecule: CCCCCCCCCCCCCCc1cccc(OCC(COP(=O)([O-])OCC(C)[N+](C)(C)C)OC(C)=O)c1 (stereo not shown) [7-Hydroxy-N,N,N-trimethyl-2-oxo-4-((3-tetradecylphenoxy)methyl)3,6,8-trioxa-7-phosphaundecan-10-aminium, 7-oxide, hydroxide, inner salt]
- Peak Mean Arterial Blood Pressure ([1]; dose 0.03 ug/kg): -9.8 mm,Hg
- Peak Mean Arterial Blood Pressure ([1]; dose 0.1 ug/kg): -17.6 mm,Hg
- Peak Mean Arterial Blood Pressure ([1]; dose 0.3 ug/kg): -78.7 mm,Hg
- Peak Mean Arterial Blood Pressure ([1]; dose 1.0 ug/kg): -95.9 mm,Hg

- IC50 (porcine pancreatic PLA2; 2 nM substrate concentration): 2.52 µM
- IC50 (porcine pancreatic PLA2; 10 uM substrate concentration): 10.1 µM
- inhibition at 10 µg/mL (porcine pancreatic PLA2; 2 nM substrate concentration): 96.6 ± 4.6%
- inhibition at 10 µg/mL (porcine pancreatic PLA2; 10 uM substrate concentration): 63.2 ± 13.5%
- inhibition at 10 µg/mL (porcine pancreatic PLA2; 100 uM substrate concentration): 45 ± 13.6%
- inhibition at 10 µg/mL (porcine pancreatic PLA2; 500 uM substrate concentration): 15.4 ± 5.7%
- inhibition at 10 µg/mL (porcine pancreatic PLA2; [2]): 8.2 ± 4.6%
- IC50 (porcine pancreatic PLA2; 100 uM substrate concentration): 20 µM
- IC50 (porcine pancreatic PLA2; 500 uM substrate concentration): 96.8 µM
- IC50 (porcine pancreatic PLA2; [2]): 137 µM
Molecule: CCCCCCCCCCCCCCCCOCC(CCSCCC[N+](C)(C)C)OC(C)=O (stereo not shown) [Example 68, 3-((3-(Acetyloxy)-4-(hexadecyloxy)-butyl)-thio)-N,N,N-trimethyl-1-propanaminium, iodide]

Molecule: CCCCCCCCCCCCCCCCOCC(COP(=O)([O-])OCC(c1ccccc1)[N+](C)(C)C)OC(C)=O (stereo not shown) [7-(Acetyloxy)-4-hydroxy-N,N,N-trimethyl-1-phenyl-3,5,9-trioxa-4-phosphapentacosan-1-aminium, 4-oxide hydroxide inner salt]
- Peak Mean Arterial Blood Pressure ([1]; dose 10.0 ug/kg): -59.0 mm,Hg

Molecule: CCCCCCCCCCCCCCCCOCC(COP(=O)([O-])OC(C)C[N+](C)(C)C)OC(C)=O (stereo not shown) [7-(Acetyloxy)-4-hydroxy-N,N,N,2-tetramethyl-3,5,9-trioxa-4-phosphapentacosan-1-aminium, 4-oxide, hydroxide, inner salt]
- Peak Mean Arterial Blood Pressure ([1]; dose 0.3 ug/kg): -17.4 mm,Hg
- Peak Mean Arterial Blood Pressure ([1]; dose 1.0 ug/kg): -40.2 mm,Hg
- Peak Mean Arterial Blood Pressure ([1]; dose 3.0 ug/kg): -88.8 mm,Hg
- Peak Mean Arterial Blood Pressure ([1]; dose 10.0 ug/kg): -96.5 mm,Hg
- Peak Mean Arterial Blood Pressure ([1]; dose 30.0 ug/kg): -103.4 mm,Hg
